# Earlier results, collected in US20110045089A1, “VITAMIN K3 DERIVATIVE / NSA FORMULATION” (priority 2009, published 2011).
# Experiments:
# [1] = for Total vitamin retention %: 1 × 2 × 3 × 4 (product of the four stress factors); for Vitamin retention, stress factor 1: vitamin premix without choline chloride: 2 months; for Vitamin retention, stress factor 4: petfood storage time: 8 months; for Vitamin retention, stress factor 2: extrusion temperature: 105° C.; for Vitamin retention, stress factor 3: drying/enrobing: 180° C.
# [2] = 80° C., high humidity
# [3] = premix containing choline chloride, after 6 months of storage (FIG. 2)
smiles,measurement,setting,value
"CC1(S(=O)(=O)[O-])CC(=O)c2ccccc2C1=O.[Na+] (stereo not shown) [MSB, Menadione Sodium Bisulphite]",Total vitamin retention %,[1],5%
same,"Vitamin retention, stress factor 1: vitamin premix without choline chloride",[1],98%
same,"Vitamin retention, stress factor 4: petfood storage time",[1],27%
same,"Vitamin retention, stress factor 2: extrusion temperature",[1],50%
same,"Vitamin retention, stress factor 3: drying/enrobing",[1],37%
"NC(=O)c1cccnc1 [Niacinamide, nicotinamide]",Total vitamin retention %,[1],58%
same,"Vitamin retention, stress factor 1: vitamin premix without choline chloride",[1],100%
same,"Vitamin retention, stress factor 4: petfood storage time",[1],79%
same,"Vitamin retention, stress factor 2: extrusion temperature",[1],87%
same,"Vitamin retention, stress factor 3: drying/enrobing",[1],84%
"CC1(S(=O)(=O)O)CC(=O)c2ccccc2C1=O.Cc1cc(C)nc(O)n1 (stereo not shown) [MPB, 2-hydroxy-4,6-dimethyl-pyrimidinium Menadione Bisulfite]",Total vitamin retention %,[1],19%
same,"Vitamin retention, stress factor 1: vitamin premix without choline chloride",[1],100%
same,"Vitamin retention, stress factor 4: petfood storage time",[1],42%
same,"Vitamin retention, stress factor 2: extrusion temperature",[1],65%
same,"Vitamin retention, stress factor 3: drying/enrobing",[1],70%
"CC1(S(=O)(=O)O)CC(=O)c2ccccc2C1=O.NC(=O)c1cccnc1 (stereo not shown) [MNB, Nicotinamide Menadione Bisulfite]",Total vitamin retention %,[1],25%
same,"Vitamin retention, stress factor 1: vitamin premix without choline chloride",[1],100%
same,"Vitamin retention, stress factor 4: petfood storage time",[1],47%
same,"Vitamin retention, stress factor 2: extrusion temperature",[1],70%
same,"Vitamin retention, stress factor 3: drying/enrobing",[1],76%
same,Fraction decomposed during pelleting process,[2],50%
same,Original amount of K3 remaining in premix,[3],≤ 70%
